± gives the expanded uncertainty stated by the source.
Key:
[1] = wn = mass fraction of the nth substance listed; conditions: 87 kPa, Liquid, Vibrating tube method
[2] = osmotic coefficient (dimensionless); mn = molality of the nth substance listed, in mol/kg; conditions: 298.15 K, 87 kPa, Liquid, isopiestic method
[3] = mn = molality of the nth substance listed, in mol/kg; conditions: 87 kPa, Liquid, Vibrating tube method

[Cl-].[Li+] [lithium chloride] + O
mass density ([1]; 293.15 K, w1 = 0.0691): 1036.35 ± 3.7 kg/m3
mass density ([1]; 293.15 K, w1 = 0.1035): 1055.18 ± 3.7 kg/m3
mass density ([1]; 293.15 K, w1 = 0.1379): 1074.05 ± 3.7 kg/m3
mass density ([1]; 298.15 K, w1 = 0.0346): 1016.17 ± 3.7 kg/m3
mass density ([1]; 298.15 K, w1 = 0.0691): 1035.04 ± 3.7 kg/m3
mass density ([1]; 298.15 K, w1 = 0.1035): 1053.81 ± 3.7 kg/m3
mass density ([1]; 298.15 K, w1 = 0.1379): 1072.65 ± 3.7 kg/m3
mass density ([1]; 303.15 K, w1 = 0.0346): 1014.72 ± 3.7 kg/m3
mass density ([1]; 303.15 K, w1 = 0.0691): 1033.55 ± 3.7 kg/m3
mass density ([1]; 303.15 K, w1 = 0.1035): 1052.33 ± 3.7 kg/m3
mass density ([1]; 303.15 K, w1 = 0.1379): 1071.16 ± 3.7 kg/m3
mass density ([1]; 308.15 K, w1 = 0.0346): 1013.08 ± 3.7 kg/m3
mass density ([1]; 308.15 K, w1 = 0.0691): 1031.8 ± 3.7 kg/m3
mass density ([1]; 308.15 K, w1 = 0.1035): 1050.73 ± 3.7 kg/m3
mass density ([1]; 308.15 K, w1 = 0.1379): 1069.55 ± 3.7 kg/m3
mass density ([1]; 313.15 K, w1 = 0.0346): 1011.25 ± 3.7 kg/m3
mass density ([1]; 313.15 K, w1 = 0.0691): 1030.06 ± 3.7 kg/m3
mass density ([1]; 313.15 K, w1 = 0.1035): 1049.03 ± 3.7 kg/m3
mass density ([1]; 313.15 K, w1 = 0.1379): 1067.85 ± 3.7 kg/m3
osmotic coefficient ([2]; m1 = 0.9064): 1.02 ± 0.01
osmotic coefficient ([2]; m1 = 1.278): 1.08 ± 0.01
osmotic coefficient ([2]; m1 = 1.439): 1.09 ± 0.01
osmotic coefficient ([2]; m1 = 1.616): 1.09 ± 0.01
osmotic coefficient ([2]; m1 = 1.667): 1.11 ± 0.01
osmotic coefficient ([2]; m1 = 1.83): 1.12 ± 0.01
osmotic coefficient ([2]; m1 = 1.99): 1.16 ± 0.01
osmotic coefficient ([2]; m1 = 2.183): 1.18 ± 0.01
osmotic coefficient ([2]; m1 = 2.563): 1.21 ± 0.01
osmotic coefficient ([2]; m1 = 3.014): 1.27 ± 0.01
osmotic coefficient ([2]; m1 = 3.293): 1.32 ± 0.02
osmotic coefficient ([2]; m1 = 3.572): 1.37 ± 0.02
osmotic coefficient ([2]; m1 = 3.952): 1.42 ± 0.02
osmotic coefficient ([2]; m1 = 4.457): 1.51 ± 0.02
osmotic coefficient ([2]; m1 = 4.668): 1.55 ± 0.02

CCn1cc[n+](C)c1.O=S(=O)([O-])O [1-ethyl-3-methylimidazolium hydrogen sulfate] + O
mass density ([3]; 293.15 K, m1 = 0.0363): 1000.86 ± 3 kg/m3
mass density ([3]; 293.15 K, m1 = 0.0687): 1003.08 ± 3 kg/m3
mass density ([3]; 293.15 K, m1 = 0.1026): 1005.3 ± 3 kg/m3
mass density ([3]; 293.15 K, m1 = 0.1384): 1007.57 ± 3 kg/m3
mass density ([3]; 293.15 K, m1 = 0.1716): 1009.63 ± 3 kg/m3
mass density ([3]; 293.15 K, m1 = 0.2049): 1011.67 ± 3 kg/m3
mass density ([3]; 293.15 K, m1 = 0.2391): 1013.72 ± 3 kg/m3
mass density ([3]; 293.15 K, m1 = 0.2718): 1015.68 ± 3 kg/m3
mass density ([3]; 293.15 K, m1 = 0.3034): 1017.53 ± 3 kg/m3
mass density ([3]; 293.15 K, m1 = 0.3375): 1019.54 ± 3 kg/m3
mass density ([3]; 298.15 K, m1 = 0.0363): 999.65 ± 3 kg/m3
mass density ([3]; 298.15 K, m1 = 0.0687): 1001.82 ± 3 kg/m3
mass density ([3]; 298.15 K, m1 = 0.1026): 1003.99 ± 3 kg/m3
mass density ([3]; 298.15 K, m1 = 0.1384): 1006.22 ± 3 kg/m3
mass density ([3]; 298.15 K, m1 = 0.1716): 1008.23 ± 3 kg/m3
mass density ([3]; 298.15 K, m1 = 0.2049): 1010.23 ± 3 kg/m3
mass density ([3]; 298.15 K, m1 = 0.2391): 1012.24 ± 3 kg/m3
mass density ([3]; 298.15 K, m1 = 0.2718): 1014.17 ± 3 kg/m3
mass density ([3]; 298.15 K, m1 = 0.3034): 1016 ± 3 kg/m3
mass density ([3]; 298.15 K, m1 = 0.3375): 1017.98 ± 3 kg/m3
mass density ([3]; 303.15 K, m1 = 0.0363): 998.2 ± 3 kg/m3
mass density ([3]; 303.15 K, m1 = 0.0687): 1000.33 ± 3 kg/m3
mass density ([3]; 303.15 K, m1 = 0.1026): 1002.46 ± 3 kg/m3
mass density ([3]; 303.15 K, m1 = 0.1384): 1004.64 ± 3 kg/m3
mass density ([3]; 303.15 K, m1 = 0.1716): 1006.63 ± 3 kg/m3
mass density ([3]; 303.15 K, m1 = 0.2049): 1008.6 ± 3 kg/m3
mass density ([3]; 303.15 K, m1 = 0.2391): 1010.58 ± 3 kg/m3
mass density ([3]; 303.15 K, m1 = 0.2718): 1012.47 ± 3 kg/m3
mass density ([3]; 303.15 K, m1 = 0.3034): 1014.26 ± 3 kg/m3
mass density ([3]; 303.15 K, m1 = 0.3375): 1016.21 ± 3 kg/m3
mass density ([3]; 308.15 K, m1 = 0.0363): 996.54 ± 3 kg/m3
mass density ([3]; 308.15 K, m1 = 0.0687): 998.63 ± 3 kg/m3
mass density ([3]; 308.15 K, m1 = 0.1026): 1000.73 ± 3 kg/m3
mass density ([3]; 308.15 K, m1 = 0.1384): 1002.87 ± 3 kg/m3
mass density ([3]; 308.15 K, m1 = 0.1716): 1004.82 ± 3 kg/m3
mass density ([3]; 308.15 K, m1 = 0.2049): 1006.76 ± 3 kg/m3
mass density ([3]; 308.15 K, m1 = 0.2391): 1008.7 ± 3 kg/m3
mass density ([3]; 308.15 K, m1 = 0.2718): 1010.58 ± 3 kg/m3
mass density ([3]; 308.15 K, m1 = 0.3034): 1012.34 ± 3 kg/m3
mass density ([3]; 308.15 K, m1 = 0.3375): 1014.25 ± 3 kg/m3
mass density ([3]; 313.15 K, m1 = 0.0363): 994.68 ± 3 kg/m3
mass density ([3]; 313.15 K, m1 = 0.0687): 996.73 ± 3 kg/m3
mass density ([3]; 313.15 K, m1 = 0.1026): 998.8 ± 3 kg/m3
mass density ([3]; 313.15 K, m1 = 0.1384): 1000.91 ± 3 kg/m3
mass density ([3]; 313.15 K, m1 = 0.1716): 1002.83 ± 3 kg/m3
mass density ([3]; 313.15 K, m1 = 0.2049): 1004.74 ± 3 kg/m3
mass density ([3]; 313.15 K, m1 = 0.2391): 1006.66 ± 3 kg/m3
mass density ([3]; 313.15 K, m1 = 0.2718): 1008.5 ± 3 kg/m3
mass density ([3]; 313.15 K, m1 = 0.3034): 1010.24 ± 3 kg/m3
mass density ([3]; 313.15 K, m1 = 0.3375): 1012.13 ± 3 kg/m3
osmotic coefficient ([2]; m1 = 1.038): 0.895 ± 0.011
osmotic coefficient ([2]; m1 = 1.543): 0.897 ± 0.011
osmotic coefficient ([2]; m1 = 1.745): 0.898 ± 0.011
osmotic coefficient ([2]; m1 = 1.961): 0.9 ± 0.011
osmotic coefficient ([2]; m1 = 2.045): 0.904 ± 0.011
osmotic coefficient ([2]; m1 = 2.251): 0.909 ± 0.011
osmotic coefficient ([2]; m1 = 2.534): 0.915 ± 0.01
osmotic coefficient ([2]; m1 = 2.814): 0.919 ± 0.01
osmotic coefficient ([2]; m1 = 3.343): 0.93 ± 0.01
osmotic coefficient ([2]; m1 = 4.042): 0.948 ± 0.01
osmotic coefficient ([2]; m1 = 4.513): 0.96 ± 0.01
osmotic coefficient ([2]; m1 = 5.04): 0.974 ± 0.01
osmotic coefficient ([2]; m1 = 5.663): 0.993 ± 0.01
osmotic coefficient ([2]; m1 = 6.555): 1.03 ± 0.01
osmotic coefficient ([2]; m1 = 6.91): 1.05 ± 0.01

Reference: the NIST ThermoML archive (doi:10.1016/j.jct.2016.07.003)
